Data: patent publication US20060205826A1, “Method of using carotenoids in the prevention of cognitive decline and for other neuroprotection functions” (priority 2005, published 2006)

How the values were obtained:
[1] = tested on: NF-κB; test: NF-κB activity (TransAm Kit) in retina and hippocampus of diabetic mice; format: in vivo; details: 15 days post alloxan, lutein treatment before and after diabetes induction
Method: Male albino mice were used throughout the study, housed in a environmentally regulated room on a dark-light cycle of 12 hours with free access to food and water. Principles of laboratory animal care (NIH publication no. 85-23, revised 1985) were followed, as well as specific Spanish regulations. Animals were made diabetic with a single subcutaneous injection of 200 mg alloxan/kg body weight (66 mg/ml) in 0.1 M citrate buffer, pH 4.5, at day 0 of the experiment. Control mice were injected with the same volume of vehicle also at day 0 of the experiment. Mice were identified as diabetic on the basis of blood glucose levels (higher than 16 mM at least 4 days after alloxan treatment). Animals were divided into subgroups as required by the experiment (control, control+lutein, diabetic, diabetic+lutein, diabetic+insulin, diabetic+insulin+lutein). […] Insulin treated animals were injected daily with 500 mU/g body weight since day 4 until the end of the experiment. Mice were killed by cervical dislocation on day 14, and hippocampus and retina were removed and homogenized in pre-chilled 0.2 M potassium phosphate buffer, pH 7.0. […] Glycated hemoglobin was determined in blood samples obtained by heart puncture immediately before killing the animals. NF-κB activity was determined with TransAm Kit (Active Motif) that combines an ELISA test with an specific assay for transcription factors. […]

[2] = tested on: GPx activity; details: diabetic animals; Miranda et al., 2004; cited from earlier work

CC1=C[C@H](O)CC(C)(C)[C@H]1/C=C/C(C)=C/C=C/C(C)=C/C=C/C=C(C)/C=C/C=C(C)/C=C/C1=C(C)C[C@@H](O)CC1(C)C [Lutein]
NF-κB expression in hippocampus [1]: decreased
NF-κB expression in retina [1]: decreased
glutathione peroxidase activity of the retinas [2]: restored
